Data taken from US7118895B2, “Process for producing aglycon by using diglycosidase and flavor-improved food containing the aglycon and converting agent to be used in the process” (Amano Enzyme Inc., priority 2000, dated 2006).

Assays:
[1] = tested on: β-Glucosidase derived from A. niger; assay: Reactivity toward various isoflavone glycosides (HPLC); format: biochemical, Aspergillus niger; set-up: glucoside / aglycon: unit not given here; conditions: 55 °C, pH 4.0
Summary of the method: (§1)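 Aglycone liberation was measured by reversed-phase HPLC (260 nm, calibration-curve quantitation) after ethanol extraction at 0, 1, 3 and 6 h. Reactions ran at 55° C, pH 4.0 (20 mM acetate), with each glycoside (from 2 mM methanol stock) and 0.75 AU/mL enzyme solution.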

[2] = tested on: Diglycosidase derived from P. multicolor; assay: as above; format: biochemical, Penicillium multicolor; set-up: glucoside / aglycon: unit not given here; conditions: 55 °C, pH 4.0
Summary of the method: as §1

Crude diglycosidase = assay: Examination of substrate concentration in the conversion into isoflavone aglycons by diglycosidase using soybean materials; format: biochemical, Penicillium multicolor IAM7153;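 also: percent of the isoflavone family total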
Summary of the method: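 Reaction at 55° C, shaken, pH 4.0 (20 mM acetate), using crude diglycosidase from a 1.88 AU/mL enzyme solution on soy flour, soymilk, defatted soybean or soy protein concentrate at 2, 5, 10, 20 or 30% (w/v). Isoflavone aglycons quantified by HPLC of ethanol extracts at 0, 1, 3, 6 h.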

- aglycon ([1]; Reaction time 0 h): 0
- glucoside ([1]; Reaction time 0 h): 100
- aglycon ([1]; Reaction time 1 h): 1.2
- glucoside ([1]; Reaction time 1 h): 98.8
- aglycon ([1]; Reaction time 3 h): 4.4
- glucoside ([1]; Reaction time 3 h): 95.6
- aglycon ([1]; Reaction time 6 h): 9.1
- glucoside ([1]; Reaction time 6 h): 90.9
- aglycon ([2]; Reaction time 0 h): 0
- glucoside ([2]; Reaction time 0 h): 100
- aglycon ([2]; Reaction time 1 h): 78.3
- glucoside ([2]; Reaction time 1 h): 21.7
- aglycon ([2]; Reaction time 3 h): 84.5
- glucoside ([2]; Reaction time 3 h): 15.5
- aglycon ([2]; Reaction time 6 h): 86
- glucoside ([2]; Reaction time 6 h): 14
- Decomposition efficiency: ratio of each glycoside/aglycon within its isoflavone family (Crude diglycosidase; concentrated soybean protein, substrate concentration 2%, heat treatment of enzyme no, reaction time 0 h): 0.4%
- Decomposition efficiency: ratio of each glycoside/aglycon within its isoflavone family (Crude diglycosidase; concentrated soybean protein, substrate concentration 2%, heat treatment of enzyme no, reaction time 1 h): 0.4%
- Decomposition efficiency: ratio of each glycoside/aglycon within its isoflavone family (Crude diglycosidase; concentrated soybean protein, substrate concentration 2%, heat treatment of enzyme no, reaction time 3 h): 0.2%
- Decomposition efficiency: ratio of each glycoside/aglycon within its isoflavone family (Crude diglycosidase; concentrated soybean protein, substrate concentration 2%, heat treatment of enzyme no, reaction time 6 h): not detected
- Decomposition efficiency: ratio of each glycoside/aglycon within its isoflavone family (Crude diglycosidase; concentrated soybean protein, substrate concentration 2%, heat treatment of enzyme yes, reaction time 6 h): 0.4%
- Decomposition efficiency: ratio of each glycoside/aglycon within its isoflavone family (Crude diglycosidase; concentrated soybean protein, substrate concentration 5%, heat treatment of enzyme no, reaction time 0 h): 0.4%
- Decomposition efficiency: ratio of each glycoside/aglycon within its isoflavone family (Crude diglycosidase; concentrated soybean protein, substrate concentration 5%, heat treatment of enzyme no, reaction time 1 h): 0.5%
- Decomposition efficiency: ratio of each glycoside/aglycon within its isoflavone family (Crude diglycosidase; concentrated soybean protein, substrate concentration 5%, heat treatment of enzyme no, reaction time 3 h): 0.4%
- Decomposition efficiency: ratio of each glycoside/aglycon within its isoflavone family (Crude diglycosidase; concentrated soybean protein, substrate concentration 5%, heat treatment of enzyme no, reaction time 6 h): 0.2%
- Decomposition efficiency: ratio of each glycoside/aglycon within its isoflavone family (Crude diglycosidase; concentrated soybean protein, substrate concentration 5%, heat treatment of enzyme yes, reaction time 6 h): 0.4%
- Decomposition efficiency: ratio of each glycoside/aglycon within its isoflavone family (Crude diglycosidase; concentrated soybean protein, substrate concentration 10%, heat treatment of enzyme no, reaction time 0 h): 0.3%
- Decomposition efficiency: ratio of each glycoside/aglycon within its isoflavone family (Crude diglycosidase; concentrated soybean protein, substrate concentration 10%, heat treatment of enzyme no, reaction time 1 h): 0.4%
- Decomposition efficiency: ratio of each glycoside/aglycon within its isoflavone family (Crude diglycosidase; concentrated soybean protein, substrate concentration 10%, heat treatment of enzyme no, reaction time 3 h): 0.3%
- Decomposition efficiency: ratio of each glycoside/aglycon within its isoflavone family (Crude diglycosidase; concentrated soybean protein, substrate concentration 10%, heat treatment of enzyme no, reaction time 6 h): 0.3%
- Decomposition efficiency: ratio of each glycoside/aglycon within its isoflavone family (Crude diglycosidase; concentrated soybean protein, substrate concentration 10%, heat treatment of enzyme yes, reaction time 6 h): 0.3%
- Decomposition efficiency: ratio of each glycoside/aglycon within its isoflavone family (Crude diglycosidase; concentrated soybean protein, substrate concentration 20%, heat treatment of enzyme no, reaction time 0 h): 0.2%
- Decomposition efficiency: ratio of each glycoside/aglycon within its isoflavone family (Crude diglycosidase; concentrated soybean protein, substrate concentration 20%, heat treatment of enzyme no, reaction time 1 h): 0.3%
- Decomposition efficiency: ratio of each glycoside/aglycon within its isoflavone family (Crude diglycosidase; concentrated soybean protein, substrate concentration 20%, heat treatment of enzyme no, reaction time 3 h): 0.2%
- Decomposition efficiency: ratio of each glycoside/aglycon within its isoflavone family (Crude diglycosidase; concentrated soybean protein, substrate concentration 20%, heat treatment of enzyme no, reaction time 6 h): 0.3%
- Decomposition efficiency: ratio of each glycoside/aglycon within its isoflavone family (Crude diglycosidase; concentrated soybean protein, substrate concentration 20%, heat treatment of enzyme yes, reaction time 6 h): 0.4%
- Decomposition efficiency: ratio of each glycoside/aglycon within its isoflavone family (Crude diglycosidase; concentrated soybean protein, substrate concentration 30%, heat treatment of enzyme no, reaction time 0 h): 0.4%
- Decomposition efficiency: ratio of each glycoside/aglycon within its isoflavone family (Crude diglycosidase; concentrated soybean protein, substrate concentration 30%, heat treatment of enzyme no, reaction time 1 h): 0.6%
- Decomposition efficiency: ratio of each glycoside/aglycon within its isoflavone family (Crude diglycosidase; concentrated soybean protein, substrate concentration 30%, heat treatment of enzyme no, reaction time 3 h): 0.5%
- Decomposition efficiency: ratio of each glycoside/aglycon within its isoflavone family (Crude diglycosidase; concentrated soybean protein, substrate concentration 30%, heat treatment of enzyme no, reaction time 6 h): 0.3%
- Decomposition efficiency: ratio of each glycoside/aglycon within its isoflavone family (Crude diglycosidase; concentrated soybean protein, substrate concentration 30%, heat treatment of enzyme yes, reaction time 6 h): 0.4%
- Decomposition efficiency: ratio of each glycoside/aglycon within its isoflavone family (Crude diglycosidase; defatted soybean, substrate concentration 2%, heat treatment of enzyme no, reaction time 0 h): not detected
- Decomposition efficiency: ratio of each glycoside/aglycon within its isoflavone family (Crude diglycosidase; defatted soybean, substrate concentration 2%, heat treatment of enzyme no, reaction time 1 h): not detected
- Decomposition efficiency: ratio of each glycoside/aglycon within its isoflavone family (Crude diglycosidase; defatted soybean, substrate concentration 2%, heat treatment of enzyme no, reaction time 3 h): not detected
- Decomposition efficiency: ratio of each glycoside/aglycon within its isoflavone family (Crude diglycosidase; defatted soybean, substrate concentration 2%, heat treatment of enzyme no, reaction time 6 h): not detected
- Decomposition efficiency: ratio of each glycoside/aglycon within its isoflavone family (Crude diglycosidase; defatted soybean, substrate concentration 2%, heat treatment of enzyme yes, reaction time 6 h): not detected
- Decomposition efficiency: ratio of each glycoside/aglycon within its isoflavone family (Crude diglycosidase; defatted soybean, substrate concentration 5%, heat treatment of enzyme no, reaction time 0 h): 58.4%
- Decomposition efficiency: ratio of each glycoside/aglycon within its isoflavone family (Crude diglycosidase; defatted soybean, substrate concentration 5%, heat treatment of enzyme no, reaction time 1 h): 41.6%
- Decomposition efficiency: ratio of each glycoside/aglycon within its isoflavone family (Crude diglycosidase; defatted soybean, substrate concentration 5%, heat treatment of enzyme no, reaction time 3 h): 31.8%
- Decomposition efficiency: ratio of each glycoside/aglycon within its isoflavone family (Crude diglycosidase; defatted soybean, substrate concentration 5%, heat treatment of enzyme no, reaction time 6 h): 19.5%
- Decomposition efficiency: ratio of each glycoside/aglycon within its isoflavone family (Crude diglycosidase; defatted soybean, substrate concentration 5%, heat treatment of enzyme yes, reaction time 6 h): 58.5%
- Decomposition efficiency: ratio of each glycoside/aglycon within its isoflavone family (Crude diglycosidase; defatted soybean, substrate concentration 10%, heat treatment of enzyme no, reaction time 0 h): 53.0%
- Decomposition efficiency: ratio of each glycoside/aglycon within its isoflavone family (Crude diglycosidase; defatted soybean, substrate concentration 10%, heat treatment of enzyme no, reaction time 1 h): 54.7%
Compound: COc1cc2c(=O)c(-c3ccc(O)cc3)coc2cc1O[C@@H]1O[C@H](COC(=O)CC(=O)O)[C@@H](O)[C@H](O)[C@H]1O [malonylglycitin, 6″-O-malonylglycitin]
